Source: US9102656B2, “Use of rosuvastatin lactols as medicaments” (RedX Pharma Limited, priority 2009, dated 2015)
Structures can show the parent of a compound that is named as a salt.

Assays:
[1] = target: HMG-CoA reductase (Homo sapiens (Human), UniProt P04035); test: HMG-CoA Reductase assay kit (spectrophotometric NADPH absorbance at 340 nm); type: biochemical; settings: inhibitor concentrations varied from 0 nM to 50 nM; 37° C.
Experimental: All assays were carried out in a reaction buffer containing […] KxPO4 at pH 7.2, 1 mM EDTA, 500 mM KCl and 1 mg/ml BSA. The concentrations of NADPH and HMG-CoA were both 200 μM. […] Absorbance readings were then taken every 20 seconds for 600 seconds. […] After these were identified, assays were carried out varying their concentrations from 0 nM to 50 nM allowing IC50 values to be calculated.
Add a buffer to all samples. • b. […] Add the reconstituted NADPH to all samples. • d. Add Substrate Solution (HMG-CoA) to all samples. • e. […] Mix the samples thoroughly. 3. The kinetics programme was started immediately.

[2] = system: plasma triglycerides; test: Rat plasma triglyceride levels after 3 or 5 days BID oral treatment; type: in vivo; settings: male SD rats, 25 mg/kg po BID for 3 or 5 days, plasma 16 hours after last dose
Experimental: The measurement of the change in rat plasma triglyceride levels is considered to be a fair test for determining HMG CoA reductase activity.
112 male SD rats (Harlan) were housed in groups of 6 under a 12 h light dark cycle (lights on 07.00 h) with free access to food (normal laboratory chow) and water. Animals between 148-183 g were allocated to treatment groups of 8 balanced by body weight and treatments were balanced across cages.
Four rosuvastatin analogues were made up in 10% PEG300/10% cremophor/80% methyl cellulose (0.5%) (vehicle 1) to make a 5 mg/mL solution. The rosuvastatin compounds used were:
Rosuvastatin Lactol n-propyl acetal (diastereomeric ratio 2/1) (BPL001); Rosuvastatin lactol n-propyl acetal nicotinoyl ester (diastereomeric ratio 2/1) (BPL002); Rosuvastatin lactol iso-propyl acetal benzyl ether (BPL003); and Rosuvastatin lactol methyl acetal nicotinoyl ester (diastereomeric ratio 2/1) (BPL004).
Rosuvastatin was formulated in 0.5% Tween in 0.5% methyl cellulose (vehicle 2) at 5 mg/kg as a suspension.
Rats were orally dosed with vehicle 1, one of the four rosuvastatin analogues in vehicle 1 (25 mg/kg), vehicle 2 or rosuvastatin in vehicle 2 (25 mg/kg po), BID for 3 or 5 days. […]
Data for each time-point were analysed by 1-way ANOVA and post-hoc Dunnett's test.

Chain of HMG-CoA reductase (P04035 340-888): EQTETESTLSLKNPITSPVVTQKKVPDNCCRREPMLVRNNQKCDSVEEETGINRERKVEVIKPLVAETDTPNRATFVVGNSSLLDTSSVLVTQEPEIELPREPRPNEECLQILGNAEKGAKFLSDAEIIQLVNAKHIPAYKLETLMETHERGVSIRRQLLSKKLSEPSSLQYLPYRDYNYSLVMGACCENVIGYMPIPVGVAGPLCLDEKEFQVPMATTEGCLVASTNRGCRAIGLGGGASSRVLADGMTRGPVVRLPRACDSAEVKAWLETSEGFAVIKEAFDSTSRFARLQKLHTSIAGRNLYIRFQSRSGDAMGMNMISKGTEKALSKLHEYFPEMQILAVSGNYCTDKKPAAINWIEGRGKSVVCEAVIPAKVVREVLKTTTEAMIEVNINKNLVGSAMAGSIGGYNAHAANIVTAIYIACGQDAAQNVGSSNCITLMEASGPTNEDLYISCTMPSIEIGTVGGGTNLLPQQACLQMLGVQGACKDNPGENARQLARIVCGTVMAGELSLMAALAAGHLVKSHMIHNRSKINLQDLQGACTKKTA

| Compound | IC50 [1] | effect on plasma triglycerides [2] |
| --- | --- | --- |
| CC(C)c1nc(N(C)S(C)(=O)=O)nc(-c2ccc(F)cc2)c1/C=C/[C@@H](O)C[C@@H](O)CC(=O)O [Rosuvastatin calcium salt] | 4 nM | – |
| CC(C)c1nc(N(C)S(C)(=O)=O)nc(-c2ccc(F)cc2)c1C=CC(O)CC(O)CC(=O)O (stereo not drawn) [rosuvastatin, 7-[4-(4-fluorophenyl)-6-(1-methylethyl)-2-(methyl-methylsulfonyl-amino)-pyrimidin-5-yl]-3,5-dihydroxy-hept-6-enoic acid] | – | marked reduction in plasma triglycerides |
| COC1C[C@H](OC(=O)c2cccnc2)C[C@@H](/C=C/c2c(-c3ccc(F)cc3)nc(N(C)S(C)(=O)=O)nc2C(C)C)O1 (stereo partly drawn) | < 1 nM | – |
